Test results as given in US20230149420A1, “ANTI-INFLAMMATORY IMMUNOENHANCER” (SCENT SCIENCE INTERNATIONAL INC., priority 2020, published 2023).

Legend:
[1] = system: monocytes in the peripheral blood; assay: flow cytometry of monocytes in peripheral blood, 2MT i.p./odor, corticosterone (Example 3); format: in vivo, C57/BL6 mice
Method: (§1) About 3-month-old C57/BL6 mice were intraperitoneally administered with 200 μl of saline (control) or 1% 2MT solution (dissolved in saline). Blood was collected 16 hr later, and the number of various leukocytes in the peripheral blood was measured by a flow cytometry method by peroxidase staining and a two-angle laser flow cytometry method. The ratios of neutrophils and monocytes in the peripheral blood under respective conditions that were clarified by the measurement are shown.

[2] = system: peripheral blood mononuclear cells (PBMC); assay: scRNAseq gene expression changes in PBMC cell clusters, control vs 2MT (Example 2); format: in vivo, C57/BL6 mice; conditions: 2MT i.p. vs control, 16 hr
Method: About 3-month-old C57/BL6 mice were intraperitoneally administered with 200 μl of saline (control) or 1% 2MT solution (dissolved in saline). Blood was collected 16 hr later, and peripheral blood mononuclear cells (PBMC) were separated using Ficoll Paque PREMIUM 1.084 (GE Healthcare). A single cell RNA cDNA library was prepared from the separated cells by using the 10× Chromium preparation system, Chromium Single Cell 3′ Library & Gel Bead Kit v3, and sequencing was performed using the illumina HiSeq. The obtained scRNAseq data was analyzed according to the method shown in Non-Patent Literatures 4 and 5. The results of clustering using the gene expression of each cell as an index were visualized by tSNE, and the results are shown in FIG. 1A-C. […] Based on the data of scRNAseq performed in Example 1, the comparison results of the changes in the expression of each gene in the cells present in each cluster between the control conditions and the 2MT administration conditions are shown in FIG. 2. The genes whose expression changed by 2MT stimulation are shown on the top of the table, and the functional categories of the genes are shown above them. The numbers in the table indicate gene expression levels, and the density of shading indicates the degree of increase in gene expression.

[3] = system: neutrophils in the peripheral blood; assay: number of neutrophils in peripheral blood, Siemens Advia 120 (Examples 4, 5); format: in vivo, C57/BL6 mice; conditions: 200 μl of 1% solution i.p., blood 16 hr later, vs saline
Method: About 3-month-old C57/BL6 mice were intraperitoneally injected with 200 μl of saline (control) or 1% solution of respective compounds (dissolved in saline). Blood was collected 16 hr later, and the number of neutrophils in the peripheral blood was measured using Siemens Advia 120.

[4] = system: neutrophils in the whole blood cells; assay: ratio of neutrophils in whole blood cells, Siemens Advia 120 (Examples 12, 13); format: in vivo, C57/BL6 mice; conditions: 200 μl of 1% solution i.p., blood 16 hr later, vs saline
Method: About 3-month-old C57/BL6 mice were intraperitoneally injected with 200 μl of saline (control) or 1% solution of respective compounds (dissolved in saline). Blood was collected 16 hr later, and the ratio of neutrophils in the whole blood cells was measured using Siemens Advia 120.

[5] = system: monocytes in the peripheral blood; assay: number of monocytes in peripheral blood, Siemens Advia 120 (Examples 6, 7); format: in vivo, C57/BL6 mice; conditions: 200 μl of 1% solution i.p., blood 16 hr later, vs saline
Method: About 3-month-old C57/BL6 mice were intraperitoneally injected with 200 μl of saline (control) or 1% solution of respective compounds (dissolved in saline). Blood was collected 16 hr later, and the number of monocytes in the peripheral blood was measured using Siemens Advia 120.
About 3-month-old C57/BL6 mice were intraperitoneally injected with 200 μl of saline (control) or 1% allyl isothiocyanate solution (dissolved in saline). Blood was collected 16 hr later, and the number of monocytes in the peripheral blood was measured using Siemens Advia 120.

[6] = blood stress hormone (Corticosterone) after 2MT stimulation; format: in vivo
[7] = system: peripheral blood mononuclear cells (PBMC); assay: scRNAseq classification of PBMC after intraperitoneal 2MT (Example 1); format: in vivo, C57/BL6 mice; conditions: 200 μl of 1% 2MT solution i.p., blood 16 hr later
Method: About 3-month-old C57/BL6 mice were intraperitoneally administered with 200 μl of saline (control) or 1% 2MT solution (dissolved in saline). Blood was collected 16 hr later, and peripheral blood mononuclear cells (PBMC) were separated using Ficoll Paque PREMIUM 1.084 (GE Healthcare). A single cell RNA cDNA library was prepared from the separated cells by using the 10× Chromium preparation system, Chromium Single Cell 3′ Library & Gel Bead Kit v3, and sequencing was performed using the illumina HiSeq. The obtained scRNAseq data was analyzed according to the method shown in Non-Patent Literatures 4 and 5. The results of clustering using the gene expression of each cell as an index were visualized by tSNE, and the results are shown in FIG. 1A-C.

[8] = system: monocytes in the whole blood cells; assay: ratio of monocytes in whole blood cells, Siemens Advia 120 (Examples 10, 11); format: in vivo, C57/BL6 mice; conditions: 200 μl of 1% solution i.p., blood 16 hr later, vs saline
Method: About 3-month-old C57/BL6 mice were intraperitoneally injected with 200 μl of saline (control) or 1% solution of respective compounds (dissolved in saline). Blood was collected 16 hr later, and the ratio of monocytes in the whole blood cells was measured using Siemens Advia 120.
About 3-month-old C57/BL6 mice were intraperitoneally injected with 200 μl of saline (control) or 1% allyl isothiocyanate solution (dissolved in saline). Blood was collected 16 hr later, and the ratio of monocytes in the whole blood cells was measured using Siemens Advia 120.

[9] = system: neutrophils in the peripheral blood; assay: flow cytometry of neutrophils in peripheral blood, 2MT i.p./odor, corticosterone (Example 3); format: in vivo, C57/BL6 mice
Method: as §1

[10] = intraperitoneal injection vs saline i.p., blood 16 hr later

CC1=NCCS1 [2-Methyl-2-thiazoline]
number of monocytes [1, 10]: increased | number of monocytes ([1]; odor stimulation vs no odor): increased | expression levels of Ccr1, Ccr2, Ccr12, and Cxc12 (genes that promote blood cell migration) [2]: increased | expression levels of Lyz2, F13a1, Cd14, Chil3, and Hp (biological defense response) [2]: increased | expression levels of Nfkbia, Nfkbiz, and Socs3 (suppressors of NF-κB and JAK-STAT pathways) [2]: increased | neutrophils in the peripheral blood (number) [3]: increase | ratio of neutrophils in the whole blood cells [4]: increases | number of monocytes in the peripheral blood [5]: increase | blood stress hormone (Corticosterone) [6]: increases | numbers of monocytes (Mono 1, Mono 2) and dendritic cells (DC) ([7]; vs saline): drastically increases | dendritic cells in PBMC ([7]; control 0.83%): 2.2% | percentage of monocytes in PBMC ([7]; control 3.7%): 23.7% | ratio of monocytes in the whole blood cells [8]: increases | number of neutrophils [9, 10]: increased | number of neutrophils ([9]; odor stimulation vs no odor): increased
